From patent US9522914B2, “Azole derivative” (TAISHO PHARMACEUTICAL CO., LTD, priority 2011, dated 2016) come the findings set out here.

Assay [1] deals with T1, Human V1b receptor (Homo sapiens (Human), UniProt P47901). As to the kind of experiment: Measurement of V1b Receptor Antagonistic Activity (AVP-induced Fluo-4 fluorescence in CHO cells, FDSS). It is filed as cell-based. The note with it: inhibition of the response to AVP 2.5 nmol/L, CHO cells stably expressing human V1b receptor. As for the experimental part: Measurement of V1b Receptor Antagonistic Activity
CHO cells (ATCC) so modified as to express human V1b receptor in a stable manner were cultured in Ham's F-12 medium (containing 10% FBS and 0.5 mg/mL Geneticin). On the day before the test, seeding was conducted at a density of 20,000 cells/well in a 96-well poly-D-lysine coated black plate. On the day of the test, the culture medium was removed, and a loading solution (1×HBSS, 10 mmol/L HEPES, 0.1% bovine serum albumin, 1.25 mmol/L Probenecid, 0.02% Pluronic F-127, 1.5 μmol/L Fluo-4-AM, pH 7.4) was added to each well, followed by incubation in a CO2 incubator for an hour. After the incubation, the loading solution was removed. A test solution (1×HBSS, 10 mmol/L HEPES, 0.1% bovine serum albumin, 1.25 mmol/L Probenecid, pH 7.4) containing any one of test compounds was added to wells, followed by incubation in a CO2 incubator for 30 minutes. The test compound was serially diluted with DMSO so that it would have final concentrations of 0.1 nmol/L to […] at the time of assaying. After the incubation, fluorescence intensity levels were measured and AVP added by means of FDSS (Hamamatsu Photonics K.K.); AVP was added to give a final concentration of 2.5 nmol/L at the time of assaying. […] The fluorescence level in a well to which neither test compound nor AVP was added was defined as 0%, and the fluorescence level in a well to which only AVP was added and no test compound was added was defined as 100%. A dose-response curve was plotted from fluorescence levels after the addition of AVP in the presence of a test compound at various concentrations, and the 50% inhibitory concentration (IC50 value) of the compound was calculated.

Assay [2] deals with T1, Human V1b receptor. Description: Binding Test for V1b Receptor ([3H]AVP, crude membrane preparation of 293FT cells). Conditions: inhibition of [3H]AVP binding (0.4 to 1 nmol/L), room temperature, 60 minutes. In short, it runs like this: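 Crude membranes from 293FT cells transiently expressing human V1b, incubated with [3H]AVP (0.4 to 1 nmol/L) and compound (0.01 nmol/L–1 μmol/L final) in Tris pH 7.4 with MgCl2 and 0.1% BSA, 60 min at room temperature. Bound label collected by filtration. Nonspecific binding defined with unlabeled AVP; IC50 from dose-response curve.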

Molecules are shown by their SMILES.

T1 sequence (P47901 whole entry): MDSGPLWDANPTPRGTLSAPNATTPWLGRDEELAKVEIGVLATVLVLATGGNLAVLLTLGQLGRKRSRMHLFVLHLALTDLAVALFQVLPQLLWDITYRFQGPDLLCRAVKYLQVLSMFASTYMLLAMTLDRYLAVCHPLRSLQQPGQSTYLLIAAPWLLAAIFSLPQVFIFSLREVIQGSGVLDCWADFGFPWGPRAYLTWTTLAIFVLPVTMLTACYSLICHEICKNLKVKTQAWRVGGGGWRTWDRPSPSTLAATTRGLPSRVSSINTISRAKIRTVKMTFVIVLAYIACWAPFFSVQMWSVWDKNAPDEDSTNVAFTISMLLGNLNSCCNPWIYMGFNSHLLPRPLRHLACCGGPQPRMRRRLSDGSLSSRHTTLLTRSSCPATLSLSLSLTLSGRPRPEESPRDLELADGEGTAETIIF

Consider `CC(C)NC(=O)Cn1cc(-c2ccc(CCN3CCOCC3)cc2)nc1-c1cccc(Cl)c1` [Example A-02, 2-[2-(3-chlorophenyl)-4-{4-[2-(morpholin-4-yl)ethyl]phenyl}-1H-imidazol-1-yl]-N-(propan-2-yl)acetamide], for which the IC50 against Human V1b receptor [1] worked out at 0.0032 µM; at Human V1b receptor [2] it was 0.0037 µM.

With `CC(C)NC(=O)Cn1nc(-c2ccc(CCN3CCOCC3)cc2)nc1-c1cccc(Cl)c1` [Example B-02, 2-[5-(3-chlorophenyl)-3-{4-[2-(morpholin-4-yl)ethyl]phenyl}-1H-1,2,4-triazol-1-yl]-N-(propan-2-yl)acetamide], the IC50 on Human V1b receptor [1] worked out at 0.01 µM; on Human V1b receptor [2] it was 0.0022 µM. In the same order, the values of `CC(C)NC(=O)Cc1oc(-c2ccc(CCN3CC4(COC4)C3)cc2)nc1-c1cccc(Cl)c1` [Example C-12, 2-[4-(3-chlorophenyl)-2-{4-[2-(2-oxa-6-azaspiro[3.3]hept-6-yl)ethyl]phenyl}-1,3-oxazol-5-yl]-N-(propan-2-yl)acetamide] are 0.032 µM and 0.0043 µM.

On Human V1b receptor [2], `COc1cccc(-n2c(CC(=O)NC(C)C)nn(-c3ccc(CCN4C5CCC4COC5)c(OC)c3)c2=O)c1` [Example D-42, 2-[1-{3-methoxy-4-[2-(3-oxa-8-azabicyclo[3.2.1]oct-8-yl)ethyl]phenyl}-4-(3-methoxyphenyl)-5-oxo-4,5-dihydro-1H-1,2,4-triazol-3-yl]-N-(propan-2-yl)acetamide] returned an IC50 of 0.0079 µM. On the same count and under the same terms, for `CC(C)NC(=O)Cc1nn(-c2ccc(CCN3CCCC3)cc2)c(=O)n1-c1ccc(F)c(Cl)c1` [Example D-43, 2-[4-(3-chloro-4-fluorophenyl)-5-oxo-1-{4-[2-(pyrrolidin-1-yl)ethyl]phenyl}-4,5-dihydro-H-1,2,4-triazol-3-yl]-N-(propan-2-yl)acetamide] the value was 0.015 µM; for `CC(C)NC(=O)Cc1nn(-c2ccc(CCN3CCCCC3)cc2)c(=O)n1-c1ccc(F)c(Cl)c1` [Example D-44, 2-[4-(3-chloro-4-fluorophenyl)-5-oxo-1-{4-[2-(piperidin-1-yl)ethyl]phenyl}-4,5-dihydro-1H-1,2,4-triazol-3-yl]-N-(propan-2-yl)acetamide], 0.016 µM; for `CC(C)NC(=O)Cc1nn(-c2ccc(CCN3CCCC3)cc2)c(=O)n1-c1cccc(Cl)c1` [Example D-45, 2-[4-(3-chlorophenyl)-5-oxo-1-{4-[2-(pyrrolidin-1-yl)ethyl]phenyl}-4,5-dihydro-1H-1,2,4-triazol-3-yl]-N-(propan-2-yl)acetamide], 0.01 to 0.1 µM.

Compound `CC(C)NC(=O)Cc1nn(-c2ccc(CCN3CCCCC3)cc2)c(=O)n1-c1cccc(Cl)c1` [Example D-46, 2-[4-(3-chlorophenyl)-5-oxo-1-{4-[2-(piperidin-1-yl)ethyl]phenyl}-4,5-dihydro-1H-1,2,4-triazol-3-yl]-N-(propan-2-yl)acetamide] yielded an IC50 on Human V1b receptor [2] of 0.01 to 0.1 µM. Still for that read-out and setting: for `CC(C)NC(=O)Cc1nn(-c2ccc(CCN3CC=CCC3)cc2)c(=O)n1-c1cccc(Cl)c1` [Example D-47, 2-[4-(3-chlorophenyl)-1-{4-[2-(3,6-dihydropyridin-1(2H)-yl)ethyl]phenyl}-5-oxo-4,5-dihydro-1H-1,2,4-triazol-3-yl]-N-(propan-2-yl)acetamide] the value was 0.1 to 1 µM; for `CC(C)NC(=O)Cc1nn(-c2ccc(CCN3CCSCC3)cc2)c(=O)n1-c1cccc(Cl)c1` [Example D-48, 2-[4-(3-chlorophenyl)-5-oxo-1-{4-[2-(thiomorpholin-4-yl)ethyl]phenyl}-4,5-dihydro-1H-1,2,4-triazol-3-yl]-N-(propan-2-yl)acetamide], 0.01 to 0.1 µM; for `CC1CCN(CCc2ccc(-n3nc(CC(=O)NC(C)C)n(-c4cccc(Cl)c4)c3=O)cc2)CC1` [Example D-49, 2-[4-(3-chlorophenyl)-1-{4-[2-(4-methylpiperidin-1-yl)ethyl]phenyl}-5-oxo-4-,5-dihydro-1H-1,2,4-triazol-3-yl]-N-(propan-2-yl)acetamide], 0.1 to 1 µM. As for `COC1CCCN(CCc2ccc(-n3nc(CC(=O)NC(C)C)n(-c4cccc(Cl)c4)c3=O)cc2)C1` [Example D-50, 2-[4-(3-chlorophenyl)-1-{4-[2-(3-methoxypiperidin-1-yl)ethyl]phenyl}-5-oxo-4,5-dihydro-1H-1,2,4-triazol-3-yl]-N-(propan-2-yl)acetamide], the IC50 at Human V1b receptor [2] was in the range of 0.1 to 1 µM. The same measure, in the same setting: for `CC(C)NC(=O)Cc1nn(-c2ccc(CCN3CCC4CCCCC4C3)cc2)c(=O)n1-c1cccc(Cl)c1` [Example D-51, 2-[4-(3-chlorophenyl)-1-{4-[2-(octahydroisoquinolin-2(1H)-yl)ethyl]phenyl}-5-oxo-4,5-dihydro-1H-1,2,4-triazol-3-yl]-N-(propan-2-yl)acetamide] the value was 0.1 to 1 µM. `CC(C)NC(=O)Cc1nn(-c2ccc(CCN3C[C@@H](C)O[C@@H](C)C3)cc2)c(=O)n1-c1cccc(Cl)c1` [Example D-52, 2-[4-(3-chlorophenyl)-1-(4-{2-[(2R,6S)-2,6-dimethylmorpholin-4-yl]ethyl}phenyl)-5-oxo-4,5-dihydro-1H-1,2,4-triazol-3-yl]-N-(propan-2-yl)acetamide] came in with an IC50 on Human V1b receptor [2] of 0.1 to 1 µM.

On Human V1b receptor [2], `CC(C)NC(=O)Cc1nn(-c2ccc(CCN3CCOCC3C)cc2)c(=O)n1-c1cccc(Cl)c1` [Example D-53, 2-[4-(3-chlorophenyl)-1-{4-[2-(3-methylmorpholin-4-yl)ethyl]phenyl}-5-oxo-4,5-dihydro-1H-1,2,4-triazol-3-yl]-N-(propan-2-yl)acetamide] had a 50% inhibitory concentration (IC50) of 0.01 to 0.1 µM.

The compound `CCC1COCCN1CCc1ccc(-n2nc(CC(=O)NC(C)C)n(-c3cccc(Cl)c3)c2=O)cc1` [Example D-54, 2-[4-(3-chlorophenyl)-1-{4-[2-(3-ethylmorpholin-4-yl)ethyl]phenyl}-5-oxo-4,5-dihydro-1H-1,2,4-triazol-3-yl]-N-(propan-2-yl)acetamide] gave a 50% inhibitory concentration (IC50) at Human V1b receptor [2] of 0.01 to 0.1 µM. Same read-out and setting: for `CC(C)NC(=O)Cc1nn(-c2ccc(CCN3CCC(C)(O)CC3)cc2)c(=O)n1-c1cccc(Cl)c1` [Example D-55, 2-[4-(3-chlorophenyl)-1-{4-[2-(4-hydroxy-4-methylpiperidin-1-yl)ethyl]phenyl}-5-oxo-4,5-dihydro-1H-1,2,4-triazol-3-yl]-N-(propan-2-yl)acetamide] the value was 0.1 to 1 µM. `CC(C)NC(=O)Cc1nn(-c2ccc(CCN3CC4(CCOCC4)C3)cc2)c(=O)n1-c1cccc(Cl)c1` [Example D-56, 2-[4-(3-chlorophenyl)-1-{4-[2-(7-oxa-2-azaspiro[3.5]non-2-yl)ethyl]phenyl}-5-oxo-4,5-dihydro-1H-1,2,4-triazol-3-yl]-N-(propan-2-yl)acetamide] registered an IC50 on Human V1b receptor [2] of 0.01 to 0.1 µM.

On Human V1b receptor [2], `CC(C)NC(=O)Cc1nn(-c2ccc(CCN3CCC(F)CC3)cc2)c(=O)n1-c1cccc(Cl)c1` [Example D-57, 2-[4-(3-chlorophenyl)-1-{4-[2-(4-fluoropiperidin-1-yl)ethyl]phenyl}-5-oxo-4,5-dihydro-1H-1,2,4-triazol-3-yl]-N-(propan-2-yl)acetamide] returned an IC50 of 0.01 to 0.1 µM. Still for that read-out and setting: for `CC(C)NC(=O)Cc1nn(-c2ccc(CCN3CCC(F)(F)CC3)cc2)c(=O)n1-c1cccc(Cl)c1` [Example D-58, 2-[4-(3-chlorophenyl)-1-{4-[2-(4,4-difluoropiperidin-1-yl)ethyl]phenyl}-5-oxo-4,5-dihydro-1H-1,2,4-triazol-3-yl]-N-(propan-2-yl)acetamide] the value was 0.01 to 0.1 µM; for `CC(C)NC(=O)Cc1nn(-c2ccc(CCN3CCC(C(F)(F)F)CC3)cc2)c(=O)n1-c1cccc(Cl)c1` [Example D-59, 2-[4-(3-chlorophenyl)-5-oxo-1-(4-{2-[4-(trifluoromethyl)piperidin-1-yl]ethyl}phenyl)-4,5-dihydro-1H-1,2,4-triazol-3-yl]-N-(propan-2-yl)acetamide], 0.1 to 1 µM. `CC(C)NC(=O)Cc1nn(-c2ccc(CCN3C(C)COCC3C)cc2)c(=O)n1-c1cccc(Cl)c1` [Example D-60, 2-[4-(3-chlorophenyl)-1-{4-[2-(3,5-dimethylmorpholin-4-yl)ethyl]phenyl}-5-oxo-4,5-dihydro-1H-1,2,4-triazol-3-yl]-N-(propan-2-yl)acetamide] had a half-inhibitory concentration (IC50) at Human V1b receptor [2] of 0.1 to 1 µM.

On to `CC(C)NC(=O)Cc1nn(-c2ccc(CCN3CC4(COC4)C3)cc2)c(=O)n1-c1cccc(Cl)c1` [Example D-61, 2-[4-(3-chlorophenyl)-1-{4-[2-(2-oxa-6-azaspiro[3.3]hept-6-yl)ethyl]phenyl}-5-oxo-4,5-dihydro-1H-1,2,4-triazol-3-yl]-N-(propan-2-yl)acetamide], for which the IC50 at Human V1b receptor [2] is 0.01 to 0.1 µM.

As usually defined, the IC50 is the midpoint of a concentration-inhibition curve. A high value points to a need for much substance.
